Reference: US4500526A, “Cephalosporin derivatives” (Bristol-Myers Company, priority 1983, dated 1985)
In brackets after ≈: the same amount, converted by molar mass.

What was measured:
[1] = test system: Penicillinresistant S. aureus (5 strains); test: MIC, two-fold serial agar dilution, group (G+)-Ib; assay type: cell-based; settings: Staphylococcus aureus; (G+)-Ib, 5 strains, Mueller-Hinton agar; read-out: Geometric Mean of MIC
Summary of the method: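 Two-fold serial agar dilution in Mueller-Hinton agar against penicillin-resistant S. aureus (5 strains). Test compound weights adjusted for purity.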

E. coli Juhl = test: Median protective dose in infected mice; assay type: in vivo; settings: Escherichia coli, im, immediately after intraperitoneal challenge, read-out: PD50
Description: (§1) The median protective dose (PD50) of some of the preferred compounds against various microorganisms was determined in mice by intramuscular administration of the test compound immediately after an intraperitoneal bacterial challenge.

P. aeruginosa A21509 = test: Median protective dose in infected mice; assay type: in vivo; settings: Pseudomonas aeruginosa, im, immediately after intraperitoneal challenge, read-out: PD50
Description: as §1

P. aeruginosa A9843 = test: Median protective dose in infected mice; assay type: in vivo; settings: Pseudomonas aeruginosa, im, immediately after intraperitoneal challenge, read-out: PD50
Description: as §1

S. aureus BX-1633 = test: Median protective dose in infected mice; assay type: in vivo; settings: Staphylococcus aureus, BX1633, im, immediately after intraperitoneal challenge, read-out: PD50
Description: as §1

S. aureus Smith = test: Median protective dose in infected mice; assay type: in vivo; settings: Staphylococcus aureus, im, immediately after intraperitoneal challenge, read-out: PD50
Description: as §1

[2] = test system: Ps. aeruginosa (6 strains); test: MIC, two-fold serial agar dilution, group (G-)-III; assay type: cell-based; settings: Pseudomonas aeruginosa; (G-)-III, 6 strains, Mueller-Hinton agar; read-out: Geometric Mean of MIC
Description: In the primary evaluation of the compounds of this invention, the Minimum Inhibitory Concentrations (MIC's) of the compounds were determined by the two-fold serial agar dilution method in Mueller-Hinton agar against 32 strains of test organisms in six groups. The sample weights of the test compounds were adjusted according to the purity of each compound, so as to give a more accurate measure of the MIC's.
(G-)III: Ps. aeruginosa (6 strains)

[3] = test system: Cephalothinsensitive E. coli (2 strains), Kl. pneumoniae (1 strain) and Pr. mirabilis (2 strains); test: MIC, two-fold serial agar dilution, group (G-)-Ia; assay type: cell-based; settings: 5 strains, Mueller-Hinton agar, read-out: Geometric Mean of MIC
Summary of the method: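 Mueller-Hinton agar, two-fold serial dilution; test compound weights corrected for purity so MICs reflect actual compound content.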

[4] = test system: Cephalothinresistant E. coli (3 strains) and Kl. pneumoniae (3 strains); test: MIC, two-fold serial agar dilution, group (G-)-Ib; assay type: cell-based; settings: Escherichia coli, read-out: Geometric Mean of MIC
Summary of the method: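 MICs by two-fold serial agar dilution in Mueller-Hinton agar against cephalothin-resistant E. coli and Klebsiella pneumoniae strains. Compound weights were corrected for purity.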

[5] = Mouse blood levels after single intramuscular injection; assay type: in vivo, mice; settings: in vivo, im, 20 mg/kg
Summary of the method: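 Mice received a single intramuscular dose of 20 mg/kg in 0.1M phosphate buffer, pH 7. Orbital sinus blood was sampled over time and bioassayed on Nutrient Agar (pH 6.6) with E. coli Ess-22-31; t1/2 and AUC were derived from the blood levels.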

[6] = test system: Penicillinsensitive S. aureus (5 strains); test: MIC, two-fold serial agar dilution, group (G+)-Ia; assay type: cell-based; settings: Staphylococcus aureus; (G+)-Ia, 5 strains, Mueller-Hinton agar; read-out: Geometric Mean of MIC
Summary of the method: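 Two-fold serial agar dilution in Mueller-Hinton agar. Compound weights corrected for purity. Group comprises 5 penicillin-sensitive S. aureus strains.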

Compound | MIC [1] | ED50 (E. coli Juhl) | ED50 (P. aeruginosa A21509) | ED50 (P. aeruginosa A9843) | ED50 (S. aureus BX-1633) | ED50 (S. aureus Smith) | MIC [2] | MIC [3] | MIC [4] | AUC [5] | concentration at 10 min [5] | concentration at 20 min [5] | concentration at 0.5 h [5] | concentration at 40 min [5] | concentration at 50 min [5] | concentration at 1 h [5] | concentration at 1.5 h [5] | concentration at 2 h [5] | half-life [5] | MIC [6]
CO/N=C(\C(=O)NC1C(=O)N2C(C(=O)[O-])=C(C[n+]3ccc4scnc4c3)CS[C@H]12)c1csc(N)n1 (stereo partly shown) [Ia, 7-[(Z)-2-(2-Aminothiazol-4-yl)-2-methoxyiminoacetamido]-3-{(5-thiazolo[4,5-c]pyridinio)methyl}-3-cephem-4-carboxylate] | 0.96 µg/mL (≈ 1.81 µM) | 0.012 mg/kg | 6.25 mg/kg | 7.2 mg/kg | 0.75 mg/kg | 0.45 mg/kg | 2.6 µg/mL (≈ 4.89 µM) | 0.02 µg/mL (≈ 0.0376 µM) | 0.16 µg/mL (≈ 0.301 µM) | 15000 ng·h/mL | 20000 ng/mL | 15000 ng/mL | 11000 ng/mL | 8600 ng/mL | 6900 ng/mL | 6500 ng/mL | 3100 ng/mL | 2100 ng/mL | 35 min | 0.42 µg/mL (≈ 0.79 µM)
CC(C)(O/N=C(\C(=O)NC1C(=O)N2C(C(=O)[O-])=C(C[n+]3ccc4scnc4c3)CS[C@H]12)c1csc(N)n1)C(=O)O (stereo partly shown) [Id, 7-[(Z)-2-(2-Aminothiazol-4-yl)-2-(2-carboxyprop-2-oxyimino)-acetamido]-3-{(5-thiazolo[4,5-c]pyridinio)methyl}-3-cephem-4-carboxylate] | 8.8 µg/mL (≈ 14.6 µM) | 0.082 mg/kg | 5 mg/kg | 4.3 mg/kg | 21 mg/kg | 7.2 mg/kg | 1.4 µg/mL (≈ 2.32 µM) | 0.04 µg/mL (≈ 0.0663 µM) | 0.71 µg/mL (≈ 1.18 µM) | 9500 ng·h/mL | 16000 ng/mL | 14000 ng/mL | 11000 ng/mL | 6100 ng/mL | 3900 ng/mL | 2500 ng/mL | 720 ng/mL | < 200 ng/mL | 16 min | 4.4 µg/mL (≈ 7.29 µM)
